Measurements published in patent publication US7795286B2 (L'Oreal, priority 2004, dated 2010).

Test system: keratinocytes
Assay: Active photoprotection towards UVA-induced oxidative stress on keratinocytes (DCFH-DA fluorescent probe)
Type: cell-based
Conditions: for % of fluorescence relative to the control cells exposed to UVA, TEST 1 / % of fluorescence relative to the control cells exposed to UVA, TEST 2 / % of fluorescence relative to the control cells exposed to UVA, TEST 3 / % of fluorescence relative to the control cells exposed to UVA, Mean: 24 h pre-incubation; for % of fluorescence relative to the control cells exposed to UVA, TEST 1 / % of fluorescence relative to the control cells exposed to UVA, TEST 2 / % of fluorescence relative to the control cells exposed to UVA, TEST 3: DCF fluorescence after UVA; for % of fluorescence relative to the control cells exposed to UVA, Mean: mean of 3 tests
Description: The technique for evaluating the photo-protection is performed according to a well-known method (J. of Photochemistry and Photobiology B: Biology 57 (2000) 102-112 TOBI et al: Glutathione modulates the level of free radicals produced in UVA irradiated cells). This technique uses a fluorescent probe as a marker of the global intracellular oxidative stress, 2′,7′-dichlorofluoresceine diacetate (DCFH-DA).
The use of DCFH-DA as an oxidative stress marker is based on its physicochemical properties. It is a non-ionic apolar molecule capable of diffusing across cell membranes. Once inside the cell, DCFH-DA is hydrolysed by intracellular esterases to a non-fluorescent compound: DCFH or 2,7-dichlorofluoresceine. In the presence of activated oxygen species, DCFH is rapidly oxidized to a highly fluorescent compound: DCF or 2,7-dichlorofluoresceine.
At confluence, the keratinocytes are incubated in the presence of the compound of Example 1 for 24 hours at 37° C., 5% CO2, in the culture medium, according to a dose effect (3 concentrations). • 2. Incorporation of DCFH-DA
The keratinocytes, pretreated with the test compound, are rinsed and then incubated in the presence of DCFH-DA in the dark. • 3. Exposure to UVA
After this incubation, the DCFH-DA solution is removed and the cells are then exposed to UVA.
Comment: an unexposed control plate is kept in darkness at room temperature.
The fluorescence of the DCF is evaluated immediately after the exposure to UVA, by spectro-fluorimetry (excitation: 480 nm; emission: 530 nm). • 5. Results:
The results are expressed in Table 1 below, as a % of fluorescence relative to the control cells exposed to UVA.
The test described in Example 6 above was performed under the same conditions on R-2-oxothiazolidine-4-carboxylic acid (Compound A) and on an alkyl derivative thereof, described in patent U.S. Pat. No. 6,004,543 (Compound B).

## O=C1N[C@H](C(=O)O)CS1 [Compound A, R-2-oxothiazolidine-4-carboxylic acid, reference compound]
At 5 mM
  Measurement of the intracellular Red/Ox balance: % reduction in the fluorescence of the DCFH probe: 16% at 5 mM

## CCOC(=O)C1CSC(=O)N1 (stereo not drawn) [Compound B, reference compound]
At 7 mM, with dose effect
  Measurement of the intracellular Red/Ox balance: % reduction in the fluorescence of the DCFH probe: 37% at 7 mM with dose effect

## C[Si](C)(C)COC(=O)[C@@H]1CSC(=O)N1 [Example 1]
100 μM
  % of fluorescence relative to the control cells exposed to UVA, TEST 1: 95%
  % of fluorescence relative to the control cells exposed to UVA, TEST 2: 81%
  % of fluorescence relative to the control cells exposed to UVA, TEST 3: 75%
  % of fluorescence relative to the control cells exposed to UVA, Mean: 84%
250 μM
  % of fluorescence relative to the control cells exposed to UVA, TEST 1: 82%
  % of fluorescence relative to the control cells exposed to UVA, TEST 2: 71%
  % of fluorescence relative to the control cells exposed to UVA, TEST 3: 70%
  % of fluorescence relative to the control cells exposed to UVA, Mean: 74%
500 μM
  % of fluorescence relative to the control cells exposed to UVA, TEST 1: 75%
  % of fluorescence relative to the control cells exposed to UVA, TEST 2: 70%
  % of fluorescence relative to the control cells exposed to UVA, TEST 3: 58%
  % of fluorescence relative to the control cells exposed to UVA, Mean: 68%
At 500 μM, with dose effect
  Measurement of the intracellular Red/Ox balance: % reduction in the fluorescence of the DCFH probe: approximately 32%
